Patent US6525001B1, “Substituted pyrimidine and pyridine herbicides” (Mid-American Commercialization Corporation, priority 1997, dated 2003)

Key:
Experiment in all cases: Test B pre-/postemergence
Assay type in all cases: in vivo
Parameters in all cases: key: 0 is no effect; 10 is complete control
[1] = system: pigweed (Amaranthus retroflexus)
Method in brief: (§1)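 Response scores run from 0, meaning no effect, to 10, meaning complete control, assigned by eye relative to controls twelve to sixteen days after spraying. Treatment was both preemergence on planted seed and postemergence on plants at the 1- to 4-leaf stage.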

[2] = system: corn (Zea mays)
Method in brief: as §1

[3] = system: purple nutsedge (Cyperus rotundus)
Method in brief: as §1

[4] = system: soybean (Glycine max)
Method in brief: as §1

[5] = system: wheat (Triticum aestivum)
Method in brief: as §1

[6] = system: wild oat (Avena fatua)
Method in brief: as §1

[7] = system: cocklebur (Xanthium strumarium)
Method in brief: as §1

[8] = system: giant foxtail (Setaria faberii)
Method in brief: as §1

[9] = system: sugar beet (Beta vulgaris)
Method in brief: as §1

[10] = system: velvetleaf (Abutilon theophrasti)
Method in brief: as §1

[11] = system: blackgrass (Alopecurus myosuroides)
Method in brief: as §1

[12] = system: crabgrass (Digitaria sanguinalis)
Method in brief: as §1

[13] = system: broadleaf signalgrass (Brachiaria decumbens)
Method in brief: as §1

[14] = system: momingglory (Ipomoea hederacea)
Method in brief: as §1

[15] = Preemergence, Rate 62 g/ha, scale of 0 to 10

In the case of `Cc1cnc(-n2cnc(C(F)(F)F)n2)nc1C(=O)c1cccc(C(F)(F)F)c1` [Compound 67], the “Plant response rating, Redroot pigweed” value [1, 15] is reported as 9, the “Redroot pigweed plant response rating” value ([1]; Rate 62 g/ha, Postemergence) is reported as 9 and the “Redroot pigweed plant response rating” value ([1]; Rate 125 g/ha, Postemergence) is reported as 10. The “Plant response rating, Redroot pigweed” value ([1]; Rate 125 g/ha, Preemergence) was 10, the “Plant response rating, Redroot pigweed” value ([1]; Rate 250 g/ha, Postemergence) was 10 and the “Plant response rating, Redroot pigweed” value ([1]; Rate 250 g/ha, Preemergence) was 10. The “Plant response rating, Redroot pigweed” value ([1]; Rate 500 g/ha, Postemergence) was 10, the “Plant response rating, Redroot pigweed” value ([1]; Rate 500 g/ha, Preemergence) was 10 and the “Plant response rating, Corn” value [2, 15] was 4. The “Corn plant response rating” value ([2]; Rate 62 g/ha, Postemergence) was 4, the “Corn plant response rating” value ([2]; Rate 125 g/ha, Postemergence) was 5 and the “Plant response rating, Corn” value ([2]; Rate 125 g/ha, Preemergence) was 4. For the same molecule, the “Plant response rating, Corn” value ([2]; Rate 250 g/ha, Postemergence) was 6, the “Plant response rating, Corn” value ([2]; Rate 250 g/ha, Preemergence) was 4 and the “Plant response rating, Corn” value ([2]; Rate 500 g/ha, Postemergence) was 7. The “Plant response rating, Corn” value ([2]; Rate 500 g/ha, Preemergence) was 7, the “Nutsedge plant response rating” value ([3]; Rate 62 g/ha, Postemergence) was 0 and the “Nutsedge plant response rating” value ([3]; Rate 125 g/ha, Postemergence) was 2. For the same molecule, the “Plant response rating, Nutsedge” value ([3]; Rate 250 g/ha, Postemergence) was 4, the “Plant response rating, Nutsedge” value ([3]; Rate 500 g/ha, Preemergence) was 0 and the “Plant response rating, Soybean” value [4, 15] was 1. For the same molecule, the “Soybean plant response rating” value ([4]; Rate 62 g/ha, Postemergence) was 7, the “Soybean plant response rating” value ([4]; Rate 125 g/ha, Postemergence) was 7 and the “Plant response rating, Soybean” value ([4]; Rate 125 g/ha, Preemergence) was 2. For the same molecule, the “Plant response rating, Soybean” value ([4]; Rate 250 g/ha, Postemergence) was 8, the “Plant response rating, Soybean” value ([4]; Rate 250 g/ha, Preemergence) was 3 and the “Plant response rating, Soybean” value ([4]; Rate 500 g/ha, Postemergence) was 8. For the same molecule, the “Plant response rating, Soybean” value ([4]; Rate 500 g/ha, Preemergence) was 8, the “Plant response rating, Wheat” value [5, 15] was 3 and the “Wheat plant response rating” value ([5]; Rate 62 g/ha, Postemergence) was 3. For the same molecule, the “Wheat plant response rating” value ([5]; Rate 125 g/ha, Postemergence) was 4, the “Plant response rating, Wheat” value ([5]; Rate 125 g/ha, Preemergence) was 3 and the “Plant response rating, Wheat” value ([5]; Rate 250 g/ha, Postemergence) was 5. The “Plant response rating, Wheat” value ([5]; Rate 250 g/ha, Preemergence) was 3, the “Plant response rating, Wheat” value ([5]; Rate 500 g/ha, Postemergence) was 6 and the “Plant response rating, Wheat” value ([5]; Rate 500 g/ha, Preemergence) was 4. The “Plant response rating, Wild oats” value [6, 15] was 3, the “Wild oats plant response rating” value ([6]; Rate 62 g/ha, Postemergence) was 5 and the “Wild oats plant response rating” value ([6]; Rate 125 g/ha, Postemergence) was 7. The “Plant response rating, Wild oats” value ([6]; Rate 125 g/ha, Preemergence) was 5, the “Plant response rating, Wild oats” value ([6]; Rate 250 g/ha, Postemergence) was 8 and the “Plant response rating, Wild oats” value ([6]; Rate 250 g/ha, Preemergence) was 6. For the same molecule, the “Plant response rating, Wild oats” value ([6]; Rate 500 g/ha, Postemergence) was 8, the “Plant response rating, Wild oats” value ([6]; Rate 500 g/ha, Preemergence) was 9 and the “Cocklebur plant response rating” value ([7]; Rate 62 g/ha, Postemergence) was 7. The “Cocklebur plant response rating” value ([7]; Rate 125 g/ha, Postemergence) was 7, the “Plant response rating, Cocklebur” value ([7]; Rate 250 g/ha, Postemergence) was 8 and the “Plant response rating, Cocklebur” value ([7]; Rate 250 g/ha, Preemergence) was 2. For the same molecule, the “Plant response rating, Cocklebur” value ([7]; Rate 500 g/ha, Postemergence) was 9, the “Plant response rating, Cocklebur” value ([7]; Rate 500 g/ha, Preemergence) was 5 and the “Plant response rating, Giant foxtail” value [8, 15] was 7. For the same molecule, the “Giant foxtail plant response rating” value ([8]; Rate 62 g/ha, Postemergence) was 5, the “Giant foxtail plant response rating” value ([8]; Rate 125 g/ha, Postemergence) was 6 and the “Plant response rating, Giant foxtail” value ([8]; Rate 125 g/ha, Preemergence) was 9. For the same molecule, the “Plant response rating, Giant foxtail” value ([8]; Rate 250 g/ha, Postemergence) was 9, the “Plant response rating, Giant foxtail” value ([8]; Rate 250 g/ha, Preemergence) was 10 and the “Plant response rating, Giant foxtail” value ([8]; Rate 500 g/ha, Postemergence) was 9. For the same molecule, the “Plant response rating, Giant foxtail” value ([8]; Rate 500 g/ha, Preemergence) was 10, the “Plant response rating, Sugarbeets” value [9, 15] was 9 and the “Sugarbeets plant response rating” value ([9]; Rate 62 g/ha, Postemergence) was 9. The “Sugarbeets plant response rating” value ([9]; Rate 125 g/ha, Postemergence) was 9, the “Plant response rating, Sugarbeets” value ([9]; Rate 125 g/ha, Preemergence) was 10 and the “Plant response rating, Sugarbeets” value ([9]; Rate 250 g/ha, Postemergence) was 9. The “Plant response rating, Sugarbeets” value ([9]; Rate 250 g/ha, Preemergence) was 10, the “Plant response rating, Sugarbeets” value ([9]; Rate 500 g/ha, Postemergence) was 9 and the “Plant response rating, Sugarbeets” value ([9]; Rate 500 g/ha, Preemergence) was 10. The “Plant response rating, Velvetleaf” value [10, 15] was 8, the “Velvetleaf plant response rating” value ([10]; Rate 62 g/ha, Postemergence) was 8 and the “Velvetleaf plant response rating” value ([10]; Rate 125 g/ha, Postemergence) was 8. For the same molecule, the “Plant response rating, Velvetleaf” value ([10]; Rate 125 g/ha, Preemergence) was 9, the “Plant response rating, Velvetleaf” value ([10]; Rate 250 g/ha, Postemergence) was 8 and the “Plant response rating, Velvetleaf” value ([10]; Rate 250 g/ha, Preemergence) was 10. For the same molecule, the “Plant response rating, Velvetleaf” value ([10]; Rate 500 g/ha, Postemergence) was 8, the “Plant response rating, Velvetleaf” value ([10]; Rate 500 g/ha, Preemergence) was 10 and the “Plant response rating, Blackgrass” value [11, 15] was 3. For the same molecule, the “Blackgrass plant response rating” value ([11]; Rate 62 g/ha, Postemergence) was 5, the “Blackgrass plant response rating” value ([11]; Rate 125 g/ha, Postemergence) was 8 and the “Plant response rating, Blackgrass” value ([11]; Rate 125 g/ha, Preemergence) was 4. For the same molecule, the “Plant response rating, Blackgrass” value ([11]; Rate 250 g/ha, Postemergence) was 9, the “Plant response rating, Blackgrass” value ([11]; Rate 250 g/ha, Preemergence) was 8 and the “Plant response rating, Blackgrass” value ([11]; Rate 500 g/ha, Postemergence) was 10. For the same molecule, the “Plant response rating, Blackgrass” value ([11]; Rate 500 g/ha, Preemergence) was 9, the “Plant response rating, Crabgrass” value [12, 15] was 6 and the “Crabgrass plant response rating” value ([12]; Rate 62 g/ha, Postemergence) was 7. The “Crabgrass plant response rating” value ([12]; Rate 125 g/ha, Postemergence) was 9, the “Plant response rating, Crabgrass” value ([12]; Rate 125 g/ha, Preemergence) was 9 and the “Plant response rating, Crabgrass” value ([12]; Rate 250 g/ha, Postemergence) was 10. The “Plant response rating, Crabgrass” value ([12]; Rate 250 g/ha, Preemergence) was 10, the “Plant response rating, Crabgrass” value ([12]; Rate 500 g/ha, Postemergence) was 10 and the “Plant response rating, Crabgrass” value ([12]; Rate 500 g/ha, Preemergence) was 10. The “B. signalgrass plant response rating” value ([13]; Rate 62 g/ha, Postemergence) was 5, the “B. signalgrass plant response rating” value ([13]; Rate 62 g/ha, Preemergence) was 8 and the “B. signalgrass plant response rating” value ([13]; Rate 125 g/ha, Postemergence) was 7. For the same molecule, the “Plant response rating, B. signalgrass” value ([13]; Rate 125 g/ha, Preemergence) was 9, the “Plant response rating, B. signalgrass” value ([13]; Rate 250 g/ha, Postemergence) was 7 and the “Plant response rating, B. signalgrass” value ([13]; Rate 250 g/ha, Preemergence) was 10. The “Plant response rating, B. signalgrass” value ([13]; Rate 500 g/ha, Postemergence) was 9, the “Plant response rating, B. signalgrass” value ([13]; Rate 500 g/ha, Preemergence) was 10 and the “Plant response rating, Morningglory” value [14, 15] was 8. The “Morningglory plant response rating” value ([14]; Rate 62 g/ha, Postemergence) was 7, the “Morningglory plant response rating” value ([14]; Rate 125 g/ha, Postemergence) was 7 and the “Plant response rating, Morningglory” value ([14]; Rate 125 g/ha, Preemergence) was 10. For the same molecule, the “Plant response rating, Morningglory” value ([14]; Rate 250 g/ha, Postemergence) was 10, the “Plant response rating, Morningglory” value ([14]; Rate 250 g/ha, Preemergence) was 10 and the “Plant response rating, Morningglory” value ([14]; Rate 500 g/ha, Postemergence) was 10. The “Plant response rating, Morningglory” value ([14]; Rate 500 g/ha, Preemergence) was 10.
